Laboratory results: ChEMBL document CHEMBL4402560, “Sarco/Endoplasmic Reticulum Calcium ATPase Inhibitors: Beyond Anticancer Perspective” (J Med Chem, 2020)

Test system: Mycobacterium tuberculosis variant bovis
Assay: Antimycobacterial activity against Mycobacterium bovis
Type: functional, organism-based

SMILES | IC50 [µM]
C/C=C(\C)C(=O)O[C@@H]1C[C@H]2C(=C1C)[C@@H]1OC(=O)[C@@](C)(O)[C@@]1(O)[C@@H](OC(=O)[C@H](C)CC)C[C@@]2(C)OC(C)=O | 27.3
C/C=C(/C)C(=O)O[C@@H]1C[C@H]2C(=C1C)[C@@H]1OC(=O)[C@@](C)(O)[C@@]1(O)[C@@H](OC(=O)CCCCn1cc([C@]3(O)CC[C@H]4[C@@H]5CCc6cc(OC)ccc6[C@H]5CC[C@@]43C)nn1)C[C@]2(C)OC(C)=O | 10.6
